Counter-ions that a name gives are not always drawn. Like-named read-outs stand apart in the source and are kept apart here.
How the values were obtained:
shunt pathway = experiment: Test, Code 036 (C-Shunt inhibitor): lysis of human erythrocytes in autologous serum via shunt pathway activated by cobra venom factor; assay type: cell-based; conditions: activity in wells, twofold serial dilution; higher well number indicates higher activity
Text: (§1) An active inhibitor protects C2 from C1 and C4; (ii) Test, Code 035 (C3-C9 inhibitor)--This test determines the ability of the late components of human complement (C3-C9) to lyse EAC 142 in the presence of appropriate dilutions of the test compound. An active inhibitor protects EAC 142 from lysis by human C3-C9; (iii) Test, Code 036 (C-Shunt inhibitor)--In this test human erythrocytes rendered fragile are lysed in autologous serum via the shunt pathway activated by cobra venom factor in the presence of appropriate dilutions of the test compound. Inhibition of the shunt pathway results in failure of lysis; (iv) Forssman Vasculitis Test--Here, the well known complement dependent lesion, Forssman vasculitis, is produced in guinea pigs by intradermal injection of rabbit anti-Forssman antiserum. The lesion is measured in terms of diameter, edema and hemorrhage and the extent to which a combined index of these is inhibited by prior intraperitoneal injection of the test compound at 200 mg/kg is then reported, unless otherwise stated; (v) Forssman Shock Test--Lethal shock is produced in guinea pigs by an i.v. injection of anti-Forssman antiserum and the harmonic mean death time of treated guinea pigs is compared with that of simultaneous controls; (vi) Complement Level Reduction Test--In this test, the above dosed guinea pigs, or others, are bled for serum and the complement level is determined in undiluted serum by the capillary tube method of U.S. Pat. No. 3,876,376 and compared to undosed control guinea pigs; and (vii) Cap 50 Test--Here, appropriate amounts of the test compound are added to a pool of guinea pig serum in vitro, after which the undiluted serum capillary tube assay referred to above is run. The concentration of compound inhibiting 50% is reported.
(§2) **Activity in wells, a serial dilution assay. Higher well number indicate
(§3) higher activity. The serial dilutions are twofold.

[1] = system: late components of human complement (C3-C9); experiment: Test, Code 035 (C3-C9 inhibitor): lysis of EAC 142 by late components of human complement; assay type: cell-based; conditions: activity in wells, twofold serial dilution; higher well number indicates higher activity
Text: as §1, §2, §3

whole complement = experiment: In vivo complement inhibition in guinea pigs (whole complement of serum, capillary tube assay); parameters: species or system guinea pig; conditions: for change in vivo at 200 mg/kg: Cavia porcellus, ip
Text: as §1
With reference to Table I, guinea pigs weighing about 300 g were dosed intravenously (i.v.) or intraperitoneally (i.p.) with 200 mg/kg of the test compound dissolved in saline and adjusted to pH 7-8. […] The serum was tested for whole complement using the capillary tube assay. Percent inhibition was calculated by comparison with simultaneous controls. The results appear in Table I together with results of tests, Code 026, 035, 036, Cap 50, percent inhibition and Forssman shock.

human C1 = target: T1, human C1 (Homo sapiens, UniProt P09871); experiment: Test, Code 026 (C1 inhibitor): protection of fluid phase human C2 from activated human C1; assay type: biochemical; conditions: activity in wells, twofold serial dilution; higher well number indicates higher activity
T1 construct: substrate fluid phase human C2, in presence of C4
T1 sequence (P09871 16-688): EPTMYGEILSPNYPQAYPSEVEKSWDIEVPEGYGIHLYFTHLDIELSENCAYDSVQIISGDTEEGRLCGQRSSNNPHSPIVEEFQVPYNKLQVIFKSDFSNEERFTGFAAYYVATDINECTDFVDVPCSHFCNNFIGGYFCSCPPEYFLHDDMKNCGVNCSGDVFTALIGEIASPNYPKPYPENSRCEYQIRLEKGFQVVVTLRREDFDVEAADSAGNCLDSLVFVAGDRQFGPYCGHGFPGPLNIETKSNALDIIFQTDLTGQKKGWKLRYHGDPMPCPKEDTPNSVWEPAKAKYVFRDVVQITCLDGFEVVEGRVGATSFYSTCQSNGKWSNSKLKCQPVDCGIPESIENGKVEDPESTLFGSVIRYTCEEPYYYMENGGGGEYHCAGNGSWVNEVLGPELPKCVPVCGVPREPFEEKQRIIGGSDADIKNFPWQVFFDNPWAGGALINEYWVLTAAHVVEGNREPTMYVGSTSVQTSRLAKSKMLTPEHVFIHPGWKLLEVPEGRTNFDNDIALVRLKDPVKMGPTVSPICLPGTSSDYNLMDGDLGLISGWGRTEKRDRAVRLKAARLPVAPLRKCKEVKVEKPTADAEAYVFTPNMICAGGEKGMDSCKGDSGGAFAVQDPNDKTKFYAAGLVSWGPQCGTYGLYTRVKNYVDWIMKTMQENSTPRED
T1 sequence (P00736 18-705 partner): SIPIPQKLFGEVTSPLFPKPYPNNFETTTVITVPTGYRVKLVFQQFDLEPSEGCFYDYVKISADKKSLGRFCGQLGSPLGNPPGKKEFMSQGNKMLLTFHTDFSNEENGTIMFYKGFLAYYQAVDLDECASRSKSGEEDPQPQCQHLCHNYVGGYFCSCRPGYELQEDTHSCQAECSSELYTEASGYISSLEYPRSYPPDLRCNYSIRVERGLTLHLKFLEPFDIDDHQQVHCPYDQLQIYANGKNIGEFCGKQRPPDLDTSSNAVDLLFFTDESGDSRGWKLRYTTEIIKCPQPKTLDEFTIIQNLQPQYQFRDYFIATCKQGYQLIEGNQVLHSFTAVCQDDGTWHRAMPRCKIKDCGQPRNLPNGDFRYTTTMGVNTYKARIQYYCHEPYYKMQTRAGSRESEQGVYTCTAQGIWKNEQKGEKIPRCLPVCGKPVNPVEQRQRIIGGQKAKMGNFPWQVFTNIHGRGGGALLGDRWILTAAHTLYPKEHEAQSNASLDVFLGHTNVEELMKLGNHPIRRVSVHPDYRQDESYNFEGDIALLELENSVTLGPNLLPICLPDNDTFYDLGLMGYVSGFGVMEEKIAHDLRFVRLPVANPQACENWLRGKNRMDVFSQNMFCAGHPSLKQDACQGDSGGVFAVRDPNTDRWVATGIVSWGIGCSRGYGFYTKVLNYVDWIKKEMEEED
T1 sequence (P02745 23-245 partner): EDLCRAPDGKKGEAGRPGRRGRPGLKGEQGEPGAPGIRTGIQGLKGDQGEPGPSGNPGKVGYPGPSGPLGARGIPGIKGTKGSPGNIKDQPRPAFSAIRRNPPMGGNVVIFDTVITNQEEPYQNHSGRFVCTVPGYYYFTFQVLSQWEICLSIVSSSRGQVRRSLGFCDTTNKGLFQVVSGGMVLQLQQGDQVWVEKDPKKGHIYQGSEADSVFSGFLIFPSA
T1 sequence (P02746 28-253 partner): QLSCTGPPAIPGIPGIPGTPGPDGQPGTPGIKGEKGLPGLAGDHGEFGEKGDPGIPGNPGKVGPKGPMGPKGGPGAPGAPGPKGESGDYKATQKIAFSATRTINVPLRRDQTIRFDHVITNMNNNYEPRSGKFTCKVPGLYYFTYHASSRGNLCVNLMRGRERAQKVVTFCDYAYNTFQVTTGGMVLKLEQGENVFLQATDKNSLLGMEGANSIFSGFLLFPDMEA
T1 sequence (P02747 29-245 partner): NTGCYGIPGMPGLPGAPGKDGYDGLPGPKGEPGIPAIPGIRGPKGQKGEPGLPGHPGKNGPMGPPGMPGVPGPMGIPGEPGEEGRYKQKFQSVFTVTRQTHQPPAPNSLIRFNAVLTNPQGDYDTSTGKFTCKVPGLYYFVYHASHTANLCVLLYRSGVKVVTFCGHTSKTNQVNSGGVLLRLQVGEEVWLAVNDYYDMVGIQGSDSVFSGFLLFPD
Text: as §1, §2, §3

complement system = conditions: cited from earlier work; for anticomplementary effect: British Journal of Experimental Pathology, 33, 327-339 (1952)
[2] = The New England Journal of Medicine, 286, 808-812 (1972); cited from earlier work
[3] = 0.5 h, read-out: In Vivo Activity (Guinea Pig) % Inhibition Intraperitoneal 30 mins.
[4] = 1 h, read-out: In Vivo Activity (Guinea Pig) % Inhibition Intraperitoneal 60 mins.
[5] = 2 h, read-out: In Vivo Activity (Guinea Pig) % Inhibition Intraperitoneal 120 mins.
[6] = 0.5 h, intraperitoneal, 200 mg/kg, 30 mins., read-out: In Vivo Activity (Guinea Pig) % Inhibition Intraperitoneal 30 mins.
[7] = 1 h, intraperitoneal, 200 mg/kg, 60 mins., read-out: In Vivo Activity (Guinea Pig) % Inhibition Intraperitoneal 60 mins.
[8] = 2 h, intraperitoneal, 200 mg/kg, 120 mins., read-out: In Vivo Activity (Guinea Pig) % Inhibition Intraperitoneal 120 mins.

O=C(Nc1ccc(C(=O)Nc2ccc(S(=O)(=O)[O-])c3ccc(S(=O)(=O)[O-])cc23)c(S(=O)(=O)[O-])c1)Nc1ccc(C(=O)Nc2ccc(S(=O)(=O)[O-])c3ccc(S(=O)(=O)[O-])cc23)c(S(=O)(=O)[O-])c1.[Na+].[Na+].[Na+].[Na+].[Na+].[Na+] [4,4'-{Ureylenebis[(2-sulfo-4,1-phenylenecarbonyl)imino]}-di-1,6-naphthalenedisulfonic acid hexasodium salt]
Shunt Inhibition 036* Wells (shunt pathway): N | C-Late 035* Wells [1]: N | change in vivo at 200 mg/kg (whole complement; [3]): -3% | change in vivo at 200 mg/kg (whole complement; [4]): -4% | change in vivo at 200 mg/kg (whole complement; [5]): 6% | C1 026* Wells (human C1): +5 Wells

O=C(Nc1ccc(C(=O)Nc2cc(S(=O)(=O)[O-])cc3ccc(S(=O)(=O)[O-])cc23)c(S(=O)(=O)[O-])c1)Nc1ccc(C(=O)Nc2cc(S(=O)(=O)[O-])cc3ccc(S(=O)(=O)[O-])cc23)c(S(=O)(=O)[O-])c1.[Na+].[Na+].[Na+].[Na+].[Na+].[Na+] [4,4'-{Ureylenebis[(2-sulfo-4,1-phenylenecarbonyl)imino]}-di-2,6-naphthalenedisulfonic acid hexasodium salt]
Shunt Inhibition 036* Wells (shunt pathway): N | C-Late 035* Wells [1]: N | change in vivo at 200 mg/kg (whole complement; [3]): -3% | change in vivo at 200 mg/kg (whole complement; [4]): -4% | change in vivo at 200 mg/kg (whole complement; [5]): -11% | C1 026* Wells (human C1): +5 Wells

O=C(Nc1cc(C(=O)O)cc(C(=O)Nc2cc(S(=O)(=O)O)cc3cc(S(=O)(=O)O)cc(S(=O)(=O)O)c23)c1)Nc1cc(C(=O)O)cc(C(=O)Nc2cc(S(=O)(=O)O)cc3cc(S(=O)(=O)O)cc(S(=O)(=O)O)c23)c1 [5,5'-Ureylenebis[N-(3,6,8-trisulfo-1-naphthyl)]isophthalamic acid octasodium salt]
Shunt Inhibition 036* Wells (shunt pathway): +2 Wells | C-Late 035* Wells [1]: N | change in vivo at 200 mg/kg (whole complement; [6]): -37% | change in vivo at 200 mg/kg (whole complement; [7]): -42% | change in vivo at 200 mg/kg (whole complement; [8]): -48% | In Vivo Activity (Guinea Pig) % Inhibition Intravenous 2 mins. (whole complement; intravenous, 200 mg/kg, 2 mins.): -92% | In Vivo Activity (Guinea Pig) % Inhibition Intravenous 30 mins. (whole complement; intravenous, 200 mg/kg, 30 mins.): -44% | In Vivo Activity (Guinea Pig) % Inhibition Intravenous 120 mins. (whole complement; intravenous, 200 mg/kg, 120 mins.): -39% | C1 026* Wells (human C1): +10 Wells

COC(=O)c1cc(NC(=O)Nc2cc(C(=O)Nc3ccc(S(=O)(=O)O)c4cc(S(=O)(=O)O)cc(S(=O)(=O)O)c34)cc(C(=O)OC)c2)cc(C(=O)Nc2ccc(S(=O)(=O)O)c3cc(S(=O)(=O)O)cc(S(=O)(=O)O)c23)c1 [5,5'-Ureylenebis[N-(4,6,8-trisulfo-1-naphthyl)isophthalamic acid]dimethyl ester hexasodium salt]
Shunt Inhibition 036* Wells (shunt pathway): +1 Wells | C-Late 035* Wells [1]: +1 Wells | change in vivo at 200 mg/kg (whole complement; [6]): -14% | change in vivo at 200 mg/kg (whole complement; [7]): -17% | change in vivo at 200 mg/kg (whole complement; [8]): -25% | C1 026* Wells (human C1): +4 Wells

O=C(Nc1cc(C(=O)O)cc(C(=O)Nc2ccc(S(=O)(=O)O)c3cc(S(=O)(=O)O)cc(S(=O)(=O)O)c23)c1)Nc1cc(C(=O)O)cc(C(=O)Nc2ccc(S(=O)(=O)O)c3cc(S(=O)(=O)O)cc(S(=O)(=O)O)c23)c1 [5,5'-Ureylenebis[N-(4,6,8-trisulfo-1-naphthyl)isophthalamic acid]octasodiumsalt]
Shunt Inhibition 036* Wells (shunt pathway): +2 Wells | C-Late 035* Wells [1]: +1 Wells | change in vivo at 200 mg/kg (whole complement; [6]): -40% | change in vivo at 200 mg/kg (whole complement; [7]): -49% | change in vivo at 200 mg/kg (whole complement; [8]): -71% | C1 026* Wells (human C1): +5 Wells

CC(=O)Nc1ccc2c(S(=O)(=O)O)cc(S(=O)(=O)O)cc2c1NC(=O)c1ccc(NC(=O)Nc2ccc(C(=O)Nc3c(NC(C)=O)ccc4c(S(=O)(=O)O)cc(S(=O)(=O)O)cc34)c(S(=O)(=O)O)c2)cc1S(=O)(=O)O [5,5'-[Ureylenebis(2-sulfo-1,4-phenylenecarbonylimino)]bis[6-acetamido-1,3-naphthalenedisulfonic acid]hexasodium salt]
Shunt Inhibition 036* Wells (shunt pathway): +1 Wells | C-Late 035* Wells [1]: N | change in vivo at 200 mg/kg (whole complement; [6]): -19% | change in vivo at 200 mg/kg (whole complement; [7]): 8% | change in vivo at 200 mg/kg (whole complement; [8]): 4% | C1 026* Wells (human C1): +8 Wells

O=C(Nc1ccc(C(=O)Nc2cc(S(=O)(=O)O)cc3cccc(S(=O)(=O)O)c23)c(S(=O)(=O)O)c1)Nc1ccc(C(=O)Nc2cc(S(=O)(=O)O)cc3cccc(S(=O)(=O)O)c23)c(S(=O)(=O)O)c1 [8,8'-[Ureylenebis(2-sulfo-4,1-phenylenecarbonyl)imino]di-1,6-naphthalenedisulfonic acid hexasodium salt]
Shunt Inhibition 036* Wells (shunt pathway): +1 Wells | C-Late 035* Wells [1]: +1 Wells | change in vivo at 200 mg/kg (whole complement; [6]): -10% | change in vivo at 200 mg/kg (whole complement; [7]): -18% | change in vivo at 200 mg/kg (whole complement; [8]): -31% | C1 026* Wells (human C1): +5 Wells

Cc1ccc(C(=O)Nc2ccc(S(=O)(=O)O)c3cc(S(=O)(=O)O)cc(S(=O)(=O)O)c23)cc1NC(=O)c1cccc(NC(=O)Nc2cccc(C(=O)Nc3cc(C(=O)Nc4ccc(S(=O)(=O)O)c5cc(S(=O)(=O)O)cc(S(=O)(=O)O)c45)ccc3C)c2)c1 [Suramin]
inhibition of the complement system (complement system; Clin. Exp. Immunol., 10, 127-138 (1972)): competitive inhibitor of the complement system

Nc1ccc2cc(S(=O)(=O)O)cc(O)c2c1N=Nc1ccc(NC(=O)Nc2ccc(N=Nc3c(N)ccc4cc(S(=O)(=O)O)cc(O)c34)c(S(=O)(=O)O)c2)cc1S(=O)(=O)O [chlorazol fast pink, 3,3'-ureylenebis-[6-(2-amino-8-hydroxy-6-sulfo-1-naphthylazo)]benzenesulfonic acid, tetrasodium salt]
anticomplementary effect (complement system): anticomplementary effect

NCCCCCC(=O)O [epsilon-aminocaproic acid]
treatment of hereditary angioneurotic edema [2]: used with success

NC[C@H]1CC[C@H](C(=O)O)CC1 [tranexamic acid]
treatment of hereditary angioneurotic edema [2]: used with success

heparin
anticomplementary effect (complement system): anticomplementary effect

From patent US4229584A, “Ureylenebis(anionic substituted phenylene carbonyl)imino naphthalene sulfonic acids and naphthalene carboxylic acids and their salts” (American Cyanamid Company, priority 1978, dated 1980)
